{"source": "paper PMC8457056", "about": "“Remodeling of the Fibrillation Pathway of α‐Synuclein by Interaction with Antimicrobial Peptide LL‐III” (Chemistry (Weinheim an Der Bergstrasse, Germany), 2021)", "key": {"[1]": {"system": "several bacterial strains, fungi", "conditions": "ref [28]; cited from earlier work", "excerpt": "(§1) Antimicrobial peptides (AMPs) are a particular class of disordered proteins. They form an important part of the immune system of all living organisms and are considered as the first line of defense against infections caused by pathogens.[25, 26, 27] […] The LL‐III is a posi ..."}, "cancer cells": {"system": "cancer cells", "conditions": "cited from earlier work", "excerpt": "as §1"}, "[2]": {"conditions": "ref [28]; cited from earlier work", "excerpt": "as §1"}, "α‐Syn": {"system": "α‐Syn", "experiment": "fraction of complexed α-Syn calculated from Kb", "assay_type": "binding, human", "conditions": "100 μM α-Syn, calculated from K b", "procedure": "From the magnitude of K b, the fraction of complexed α‐Syn in the microscopy experiments could be calculated (Figure S5). For 100 μM α‐Syn, the fraction of complexed α‐Syn, θ, in the presence of 50 μM LL‐III amounts to about 0.3. […] This is likely due to the ability of the peptide to interact with one or two α‐Syn molecules within the droplets. The interaction is expected to occur mainly via the interaction of the positively charged (+6) and hydrophobic groups of LL‐III with the negatively charged C‐terminus (−12) and hydrophobic NAC region of α‐Syn, respectively. […] In the presence of 200 μM and 500 μM LL‐III, the θ‐values are 0.70 and 0.90, respectively.\nFigure S4. Binding isotherm obtained by means of Trp steady-state fluorescence anisotropy. The experiment was performed by titrating a 5 µM solution of LL-III with a solution of α-Syn in the range 0-50 µM. The red line represents the best fit according to a 1:1 binding model. The experiments were performed in 20 mM sodium acetate buffer, pH 5.0, at 25 °C.\nFigure S5. Plot of the fraction of bound α -Syn as a function of the total peptide concentration. The fraction of bound α -Syn was calculated according to the concentration used in the phase- contrast light microscopy experiments reported in Figu re 1 B of the main text: 100 µ M α-Syn and 50 µM (grey circle), 200 µM (red circle) and 500 µ M (blue circle) of LL-III. […]"}, "[3]": {"system": "neuronal SH‐SY5Y cells stably expressing an α‐Syn‐GFP fusion protein", "experiment": "PFF-induced α-Syn-GFP aggregation in SH-SY5Y cells (structured-illumination microscopy)", "assay_type": "cell-based", "conditions": "1 μM LL-III 1 h before PFF; for cells with α‐Syn‐GFP aggregates: 5 independent experiments, at least 150 cells per condition", "procedure": "Finally, to test the anti‐aggregation activity of LL‐III in a cellular model, we used the α‐Syn pre‐formed fibril (PFF) model, which involves conversion of recombinant monomeric α‐Syn protein into fibrillar seeds that were added to neuronal SH‐SY5Y cells stably expressing an α‐Syn‐GFP fusion protein.[32, 33] In brief, untreated cells expressed soluble α‐Syn‐GFP that was rather homogenously distributed throughout the cells (Figure 3, left panel). Treatment of cells with PFF seeds caused aggregation of α‐Syn‐GFP, reflected by the formation of GFP‐positive foci (Figure 3, middle and right panel). These α‐Syn‐GFP aggregates could be visualized already 24 h after PFF treatment by fluorescence super‐resolution structured illumination microscopy.\nFigure 3 LL‐III decreases PFF‐induced α‐Syn aggregation in neuronal cells. SH‐SY5Y cells stably expressing α‐Syn‐GFP were pre‐treated without or with LL‐III 1 h before adding PFF seeds to induce α‐Syn aggregation. A. α‐Syn was visualized by structured‐illumination microscopy 24 h and 48 h after PFF treatment. Green: α‐Syn (GFP), blue: nuclei (DAPI). B. Quantification of cells with α‐Syn aggregates was based on 5 independent experiments. In total, at least 150 cells were counted per condition. Data were processed by a Kolmogorov‐Smirnov test for Gaussian distribution followed by an unpaired two‐tailed Student's t‐test. *** p≤0.001.\nLL‐III was pre‐incubated with α‐Syn‐GFP‐expressing SH‐SY5Y cells at a concentration of 1 μM one hour before PFF treatment to allow cellular uptake of LL‐III. The number of cells with α‐Syn‐GFP aggregates was quantified 24 h and 48 h after PFF seeding. […]\nµM) and following the anisotropy changes of the Trp residue. […] The anisotropy was evaluated at 354 nm which corresponds to the maximum of emission of the free peptide. […]\nFar-UV circular dichroism (CD) spectra were recorded by using a Jasco J- 715 spectropolarimeter from Jasco Cor-poration (Tokyo, Japan). […] A blank spectrum of 20 mM sodium acetate buffer, pH 5.0, was recorded and subtracted from all the samples spectra. […]"}, "net charge of LL-III": {"experiment": "net charge of LL-III", "assay_type": "physicochemical"}}}
{"substance": "NH2-VNWKKIL GKIIKVVK -CONH2 [LL‐III]", "values": [{"measurement": "activity against several bacterial strains, fungi", "setting": "[1]", "value": "remarkable activity"}, {"measurement": "cellular localization", "setting": "cancer cells; ref [22]", "value": "localizing mainly in the nucleolus and in granules"}, {"measurement": "translocation across plasma membrane", "setting": "cancer cells; ref [22]", "value": "able to translocate across the plasma membrane of cancer cells"}, {"measurement": "activity against cancer cells", "setting": "cancer cells; ref [28]", "value": "remarkable activity"}, {"measurement": "cytotoxicity", "setting": "[2]", "value": "moderate cytotoxicity"}, {"measurement": "fraction of complexed α‐Syn, θ", "setting": "α‐Syn; 50 μM LL-III", "value": "about 0.3"}, {"measurement": "fraction of complexed α‐Syn, θ", "setting": "α‐Syn; 200 μM LL-III", "value": 0.70}, {"measurement": "fraction of complexed α‐Syn, θ", "setting": "α‐Syn; 500 μM LL-III", "value": 0.90}, {"measurement": "cells with α‐Syn‐GFP aggregates", "setting": "[3]; 24 h after PFF seeding, without LL-III 48 %", "value": 30, "unit": "%"}, {"measurement": "change in number of cells with aggregates", "setting": "[3]; 24 h and 48 h", "value": "significantly decreased"}, {"measurement": "cells with α‐Syn‐GFP aggregates", "setting": "[3]; 48 h after PFF seeding, without LL-III 54 %", "value": 36, "unit": "%"}, {"measurement": "net charge at pH 5.0", "setting": "net charge of LL-III; also at the lower pH of pH 5.0", "value": "+6"}, {"measurement": "net charge at pH 7.4", "setting": "net charge of LL-III; pH 7.4", "value": "+6"}]}
